# ChEMBL document CHEMBL1145157, “Synthesis and structure-activity relationships of soluble 7-substituted 3-(3,5-dimethoxyphenyl)-1,6-naphthyridin-2-amines and related ureas as dual inhibitors of the fibroblast growth factor receptor-1 and vascular endothelial growth factor receptor-2 tyrosine kinases” (J Med Chem, 2005)
# Tests used:
# [1] = target: Platelet-derived growth factor receptor (PDGFr) (Rattus norvegicus, UniProt P20786+Q05030); test: Inhibition of PDGF-dependent rat glioma cell proliferation; format: functional
# [2] = target: Platelet-derived growth factor receptor beta (Mus musculus, UniProt P05622); test: Inhibition of glutamate/tyrosine (4:1) copolymer phosphorylation by mouse platelet-derived growth factor receptor-beta
# Sequence of Platelet-derived growth factor receptor beta (P05622 whole entry): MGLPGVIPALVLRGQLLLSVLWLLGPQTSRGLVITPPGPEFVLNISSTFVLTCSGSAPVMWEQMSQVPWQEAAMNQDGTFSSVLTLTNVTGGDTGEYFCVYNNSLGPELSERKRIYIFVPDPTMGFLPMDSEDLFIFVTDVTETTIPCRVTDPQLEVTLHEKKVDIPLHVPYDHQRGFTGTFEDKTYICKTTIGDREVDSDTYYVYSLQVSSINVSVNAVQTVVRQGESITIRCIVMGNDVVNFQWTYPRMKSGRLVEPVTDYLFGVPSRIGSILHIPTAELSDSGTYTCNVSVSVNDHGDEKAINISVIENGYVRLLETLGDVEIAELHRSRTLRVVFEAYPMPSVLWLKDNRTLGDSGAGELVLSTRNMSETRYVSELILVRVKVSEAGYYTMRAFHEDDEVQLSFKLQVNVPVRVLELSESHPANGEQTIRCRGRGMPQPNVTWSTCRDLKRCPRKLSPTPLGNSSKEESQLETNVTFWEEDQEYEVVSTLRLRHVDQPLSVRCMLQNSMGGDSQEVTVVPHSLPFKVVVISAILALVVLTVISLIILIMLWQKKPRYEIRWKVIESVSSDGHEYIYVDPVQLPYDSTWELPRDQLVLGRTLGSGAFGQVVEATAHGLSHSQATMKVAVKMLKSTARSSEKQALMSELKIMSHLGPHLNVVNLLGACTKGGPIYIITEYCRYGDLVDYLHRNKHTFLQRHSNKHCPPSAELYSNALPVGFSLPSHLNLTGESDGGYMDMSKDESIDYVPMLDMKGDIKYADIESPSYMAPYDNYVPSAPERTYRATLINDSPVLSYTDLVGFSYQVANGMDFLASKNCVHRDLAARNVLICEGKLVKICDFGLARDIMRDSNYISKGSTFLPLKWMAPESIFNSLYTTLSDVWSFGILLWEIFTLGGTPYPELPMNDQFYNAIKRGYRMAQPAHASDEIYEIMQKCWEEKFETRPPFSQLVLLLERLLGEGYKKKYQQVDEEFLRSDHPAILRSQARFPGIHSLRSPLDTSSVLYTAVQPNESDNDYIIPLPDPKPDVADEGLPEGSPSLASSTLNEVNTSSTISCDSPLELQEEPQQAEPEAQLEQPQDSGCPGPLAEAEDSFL
# [3] = target: Proto-oncogene tyrosine-protein kinase Src (Gallus gallus, UniProt P00523); test: Inhibition of glutamate/tyrosine (4:1) copolymer phosphorylation by avian c-Src tyrosine kinase
# [4] = target: Vascular endothelial growth factor receptor (Homo sapiens, UniProt P17948+P35916+P35968); test: Inhibition of VEGF-stimulated human umbilical vein endothelial cell proliferation; format: functional, cell-based
# [5] = target: Vascular endothelial growth factor receptor 2 (Homo sapiens, UniProt P35968); test: Inhibition of glutamate/tyrosine (4:1) copolymer phosphorylation by human VEGFR 2 in DELFIA assay
# Sequence of Vascular endothelial growth factor receptor 2 (P35968 whole entry): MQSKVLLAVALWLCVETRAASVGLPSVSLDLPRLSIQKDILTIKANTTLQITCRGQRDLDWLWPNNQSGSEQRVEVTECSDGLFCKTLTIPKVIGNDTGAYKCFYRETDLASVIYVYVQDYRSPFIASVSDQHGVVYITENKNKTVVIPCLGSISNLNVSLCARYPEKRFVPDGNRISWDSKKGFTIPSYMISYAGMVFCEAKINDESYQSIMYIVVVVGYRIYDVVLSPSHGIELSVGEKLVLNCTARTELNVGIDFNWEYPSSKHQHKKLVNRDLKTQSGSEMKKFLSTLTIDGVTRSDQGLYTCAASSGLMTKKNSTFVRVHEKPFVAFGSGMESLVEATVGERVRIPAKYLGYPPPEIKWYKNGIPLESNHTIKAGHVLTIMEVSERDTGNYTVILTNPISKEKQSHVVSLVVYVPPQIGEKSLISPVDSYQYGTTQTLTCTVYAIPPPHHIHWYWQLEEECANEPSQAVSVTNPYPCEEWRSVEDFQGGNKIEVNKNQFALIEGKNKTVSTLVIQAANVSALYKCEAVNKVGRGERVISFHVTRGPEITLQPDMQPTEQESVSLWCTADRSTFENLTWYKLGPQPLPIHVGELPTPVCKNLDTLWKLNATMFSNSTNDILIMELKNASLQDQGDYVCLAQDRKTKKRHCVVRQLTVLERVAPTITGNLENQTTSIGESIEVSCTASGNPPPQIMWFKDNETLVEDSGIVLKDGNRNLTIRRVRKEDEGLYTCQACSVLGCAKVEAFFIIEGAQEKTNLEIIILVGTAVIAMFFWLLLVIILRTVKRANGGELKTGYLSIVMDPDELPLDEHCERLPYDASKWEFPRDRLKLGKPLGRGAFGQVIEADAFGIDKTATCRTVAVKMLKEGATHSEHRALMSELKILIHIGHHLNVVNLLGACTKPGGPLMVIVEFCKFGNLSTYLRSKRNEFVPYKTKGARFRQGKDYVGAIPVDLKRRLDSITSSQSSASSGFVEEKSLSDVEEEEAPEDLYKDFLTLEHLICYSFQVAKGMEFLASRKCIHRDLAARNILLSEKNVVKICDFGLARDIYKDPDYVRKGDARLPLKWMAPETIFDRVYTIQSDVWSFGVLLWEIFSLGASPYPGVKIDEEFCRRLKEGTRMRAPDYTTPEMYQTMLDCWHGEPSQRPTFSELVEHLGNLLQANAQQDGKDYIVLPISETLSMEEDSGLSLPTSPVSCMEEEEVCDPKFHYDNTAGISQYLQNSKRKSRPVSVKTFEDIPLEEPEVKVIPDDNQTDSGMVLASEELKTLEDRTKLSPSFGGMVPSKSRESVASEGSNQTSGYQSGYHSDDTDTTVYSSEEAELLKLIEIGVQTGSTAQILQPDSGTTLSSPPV
IC50 [1] [µM],IC50 [2] [µM],IC50 [3] [µM],IC50 [4] [µM],IC50 [5] [µM],Compound
2.7,15,21,–,–,COc1cc(OC)cc(-c2cc3cnc(NCCCCN4CCOCC4)cc3nc2NC(=O)NC(C)(C)C)c1
7.5,30,14,–,–,CCNC(=O)Nc1nc2cc(NCCCN3CCN(C)CC3)ncc2cc1-c1cc(OC)cc(OC)c1
–,> 50,> 50,–,–,COc1cc(OC)cc(C2Cc3cnc(N(CCCOCc4ccccc4)C(C)=O)cc3N=C2NC(=O)NC(C)(C)C)c1 (stereo unspecified)
–,4,0.042,–,–,CCN(CC)CCCCNc1cc2nc(N)c(-c3c(Cl)cccc3Cl)cc2cn1
5.9,> 50,26,–,–,CCN(CC)CCCCNc1cc2nc(N)c(-c3cc(OC)cc(OC)c3)cc2cn1
7.9,31,26,–,–,COc1cc(OC)cc(-c2cc3cnc(NCCCN4CCN(C)CC4)nc3nc2NC(=O)NC(C)(C)C)c1
–,> 50,> 50,–,–,COc1cc(OC)cc(-c2cc3cnc(NCCCCOc4ccccc4)cc3nc2NC(=O)NC(C)(C)C)c1
–,> 50,> 50,–,–,COc1cc(OC)cc(-c2cc3cnc(N(CCCCOCc4ccccc4)C(C)=O)cc3nc2NC(=O)NC(C)(C)C)c1
–,0.45,0.11,–,–,CCN(CC)CCCCNc1cc2nc(NC(=O)NC(C)(C)C)c(-c3ccccc3)cc2cn1
–,> 50,> 50,–,–,COc1cc(OC)cc(-c2cc3cnc(N(CCCCO)C(C)=O)cc3nc2NC(=O)NC(C)(C)C)c1
0.98,27,6.1,–,–,COc1cc(OC)cc(-c2cc3cnc(NCCCCCN4CCN(C)CC4)cc3nc2NC(=O)NC(C)(C)C)c1
12,45,35,–,–,CCNC(=O)Nc1nc2nc(NCCCN3CCN(C)CC3)ncc2cc1-c1cc(OC)cc(OC)c1
1.8,16,9.1,–,–,COc1cc(OC)cc(-c2cc3cnc(NCCCN4CCN(C)CC4)cc3nc2NC(=O)NC(C)(C)C)c1
–,8.8,1.6,–,–,CN1CCN(CCCNc2cc3nc(N)c(-c4ccccc4)cc3cn2)CC1
1.3,3.6,4.1,–,–,COc1cc(OC)cc(-c2cc3cnc(NCCCCN4CCN(C)CC4)cc3nc2NC(=O)NC(C)(C)C)c1
–,0.16,0.014,–,–,CCNC(=O)Nc1nc2cc(NCCCCN(CC)CC)ncc2cc1-c1c(Cl)cccc1Cl
–,0.54,0.019,–,–,CCNC(=O)Nc1nc2cc(NCCCN3CCN(C)CC3)ncc2cc1-c1c(Cl)cccc1Cl
–,> 50,> 50,–,–,COc1cc(OC)cc(C2Cc3cnc(N(CCCCOCc4ccccc4)C(C)=O)cc3N=C2NC(=O)NC(C)(C)C)c1 (stereo unspecified)
–,12,1.4,–,–,CCN(CC)CCCCNc1cc2nc(N)c(-c3ccccc3)cc2cn1
3.5,6.5,7,–,–,CCNC(=O)Nc1nc2cc(NCCCCN(CC)CC)ncc2cc1-c1cc(OC)cc(OC)c1
–,> 50,> 50,–,–,COc1cc(OC)cc(-c2cc3cnc(NCCCCCOc4ccccc4)cc3nc2NC(=O)NC(C)(C)C)c1
–,> 50,> 50,–,–,COc1cc(OC)cc(C2Cc3cnc(N(CCCCCOCc4ccccc4)C(C)=O)cc3N=C2NC(=O)NC(C)(C)C)c1 (stereo unspecified)
> 25,27,22,–,–,CCNC(=O)Nc1nc2nc(NCCCCN(CC)CC)ncc2cc1-c1cc(OC)cc(OC)c1
–,> 50,> 50,–,–,COc1cc(OC)cc(-c2cc3cnc(N(CCCOCc4ccccc4)C(C)=O)cc3nc2NC(=O)NC(C)(C)C)c1

IC50 [1] [µM],IC50 [2] [µM],IC50 [3] [µM],IC50 [4] [µM],IC50 [5] [µM],Compound
–,> 50,> 50,–,–,COc1cc(OC)cc(-c2cc3cnc(NCCCOc4ccccc4)cc3nc2NC(=O)NC(C)(C)C)c1
2.1,2.6,4.6,–,–,CCN(CC)CCCCNc1cc2nc(NC(=O)NC(C)(C)C)c(-c3cc(OC)cc(OC)c3)cc2cn1
2.9,> 50,16,–,–,COc1cc(OC)cc(-c2cc3cnc(NCCCCCN4CCOCC4)cc3nc2NC(=O)NC(C)(C)C)c1
–,4.7,0.069,–,–,CN1CCN(CCCNc2cc3nc(N)c(-c4c(Cl)cccc4Cl)cc3cn2)CC1
9.1,50,> 50,–,–,COc1cc(OC)cc(-c2cc3cnc(NCCCN4CCN(C)CC4)cc3nc2N)c1
–,> 50,> 50,–,–,COc1cc(OC)cc(C2Cc3cnc(N(CCCCO)C(C)=O)cc3N=C2NC(=O)NC(C)(C)C)c1 (stereo unspecified)
–,0.62,0.019,–,–,CN1CCN(CCCNc2cc3nc(NC(=O)NC(C)(C)C)c(-c4c(Cl)cccc4Cl)cc3cn2)CC1
–,> 50,> 50,–,–,COc1cc(OC)cc(C2Cc3cnc(N(CCCCCO)C(C)=O)cc3N=C2NC(=O)NC(C)(C)C)c1 (stereo unspecified)
1.5,5,3.6,–,–,CCN(CC)CCCCCNc1cc2nc(NC(=O)NC(C)(C)C)c(-c3cc(OC)cc(OC)c3)cc2cn1
1.8,32,> 50,–,–,COc1cc(OC)cc(-c2cc3cnc(NCCCO)cc3nc2NC(=O)NC(C)(C)C)c1
3.4,–,> 50,–,–,COc1cc(OC)cc(-c2cc3cnc(NCCCN4CCOCC4)cc3nc2NC(=O)NC(C)(C)C)c1
–,> 50,6.8,–,–,CN1CCN(CCCNc2cc3nc(NCCCN4CCN(C)CC4)c(-c4ccccc4)cc3cn2)CC1
–,> 50,> 50,–,–,COc1cc(OC)cc(-c2cc3cnc(N(CCCO)C(C)=O)cc3nc2NC(=O)NC(C)(C)C)c1
–,> 50,> 50,–,–,COc1cc(OC)cc(C2Cc3cnc(N(CCCO)C(C)=O)cc3N=C2NC(=O)NC(C)(C)C)c1 (stereo unspecified)
4,18,16,–,–,CCN(CC)CCCNc1cc2nc(NC(=O)NC(C)(C)C)c(-c3cc(OC)cc(OC)c3)cc2cn1
–,> 50,> 50,–,–,COc1cc(OC)cc(-c2cc3cnc(N(CCCCCO)C(C)=O)cc3nc2NC(=O)NC(C)(C)C)c1
11,> 50,> 50,–,–,COc1cc(OC)cc(-c2cc3cnc(NCCCO)nc3nc2NC(=O)NC(C)(C)C)c1
–,0.48,0.014,–,–,CCN(CC)CCCCNc1cc2nc(NC(=O)NC(C)(C)C)c(-c3c(Cl)cccc3Cl)cc2cn1
3.4,11,> 50,–,–,COc1cc(OC)cc(-c2cc3cnc(NCCCCCO)cc3nc2NC(=O)NC(C)(C)C)c1
–,> 50,> 50,–,–,COc1cc(OC)cc(-c2cc3cnc(N(CCCCCOCc4ccccc4)C(C)=O)cc3nc2NC(=O)NC(C)(C)C)c1
1.2,23,> 50,–,–,COc1cc(OC)cc(-c2cc3cnc(NCCCCO)cc3nc2NC(=O)NC(C)(C)C)c1
–,1.2,0.23,–,–,CN1CCN(CCCNc2cc3nc(NC(=O)NC(C)(C)C)c(-c4ccccc4)cc3cn2)CC1
17,14,20,0.19,0.12,CCN(CC)CCCCNc1ncc2cc(-c3cc(OC)cc(OC)c3)c(NC(=O)NC(C)(C)C)nc2n1 [PD-173074]
